System: ivacaftor metabolism in rat liver microsomes (RLM)
Experiment: Screening of 79 drugs (100 μM) for inhibition of ivacaftor metabolism in RLM incubation
Assay type: in vitro ADME
Conditions: each drug 100 μM, 0.3 mg/mL RLM
Experimental: The supernatants were centrifuged at 100,000 × g for 1 h, and the pellets were resuspended with cold […] PBS. Protein concentrations were determined by Bradford Protein Assay Kit (Thermo Scientific, Waltham, MA, United States).
This system was made up of 200 μL of incubation solution consisting of 0.3 mg/mL RLM or 0.4 mg/mL HLM, 1.0 mM NADPH, pH 7.4 PBS and ivacaftor. […] The solution should be pre-incubated at 37°C for 5 min before adding NADPH. Following the addition of NADPH, the mixture should be incubated for 40 min. The reaction should then be stopped at −80°C. After the enzyme reaction was completed, 20 μL of 500 ng/mL IS solution and 400 μL acetonitrile (protein precipitating agent) were added to the mixture. The mixture was vortexed for 2 min and then centrifuged at 13,000 rpm for 10 min. After centrifugation, 100 μL of the supernatant was quantified using UPLC-MS/MS.
Each drug was used at a concentration of 100 μM as the inhibitor. The culture system was 200 μL and included 0.3 mg/mL RLM, 1.0 mM NADPH, PBS, ivacaftor, and inhibitor. The reaction procedure was the same as the enzyme reaction mentioned above Section 2.2.

Structure (SMILES)	Metabolic rate (Mean ± SD, % of control)
O=C(O)Cc1ccc(O)cc1 [2-(4-Hydroxyphenyl) acetic acid]	101.32 ± 0.94 % of control
O=C(O[C@@H]1Cc2c(O)cc(O)cc2O[C@@H]1c1cc(O)c(O)c(O)c1)c1cc(O)c(O)c(O)c1 [(-)-Epigallocatechin gallate]	72.21 ± 13.75 % of control
CCCCc1oc2ccccc2c1C(=O)c1cc(I)c(OCCN(CC)CC)c(I)c1 [Amiodarone]	5.73 ± 0.85 % of control
C=C1CC[C@@H]2[C@](C)(CO)[C@H](O)CC[C@@]2(C)[C@@H]1C/C=C1/C(=O)OC[C@H]1O [Andrographolide]	81.58 ± 1.22 % of control
O=c1cc(-c2ccc(O)cc2)oc2cc(O)cc(O)c12 [Apigenin]	58.35 ± 2.14 % of control
COc1ccc(-n2nc(C(N)=O)c3c2C(=O)N(c2ccc(N4CCCCC4=O)cc2)CC3)cc1 [Apixaban]	83.91 ± 3.91 % of control
CO[C@H]1O[C@@H]2O[C@@]3(C)CC[C@H]4[C@H](C)CC[C@@H]([C@H]1C)[C@@]24OO3 [Artemether]	41.88 ± 3.81 % of control
O=c1cc(-c2ccccc2)oc2cc(O)c(O)c(O)c12 [Baicalein]	15.24 ± 0.00 % of control
O=C(O)[C@H]1O[C@@H](Oc2cc3oc(-c4ccccc4)cc(=O)c3c(O)c2O)[C@H](O)[C@@H](O)[C@@H]1O [Baicalin]	50.95 ± 0.08 % of control
COc1ccc2cc3[n+](cc2c1OC)CCc1cc2c(cc1-3)OCO2 [Berberine]	109.72 ± 0.72 % of control
COc1c(O)cc2c(c1O)[C@@H]1O[C@H](CO)[C@@H](O)[C@H](O)[C@H]1OC2=O [Bergenin]	142.63 ± 33.46 % of control
C[N+](C)(C)CC(=O)O [Betaine]	100.10 ± 4.97 % of control
COc1ccccc1Oc1c(NS(=O)(=O)c2ccc(C(C)(C)C)cc2)nc(-c2ncccn2)nc1OCCO [Bosentan]	131.49 ± 2.21 % of control
O=C(O)/C=C/c1ccc(O)c(O)c1 [Caffeic acid]	106.41 ± 1.94 % of control
COc1ccccc1OCCNCC(O)COc1cccc2[nH]c3ccccc3c12 (centres unmarked) [Carvedilol]	12.87 ± 0.57 % of control
O=c1cc(-c2ccccc2)oc2cc(O)cc(O)c12 [Chrysin]	74.50 ± 20.73 % of control
O=C1CCc2cc(OCCCCc3nnnn3C3CCCCC3)ccc2N1 [Cilostazol]	13.12 ± 0.36 % of control
CN/C(=N/CCSCc1nc[nH]c1C)NC#N [Cimetidine]	62.59 ± 8.46 % of control
COc1cc(/C=C/C(=O)CC(=O)/C=C/c2ccc(O)c(OC)c2)ccc1O [Curcumin]	8.19 ± 0.34 % of control
[H]/N=C(/N)c1ccc(NCc2nc3cc(C(=O)N(CCC(=O)O)c4ccccn4)ccc3n2C)cc1 [Dabigatran]	104.42 ± 27.66 % of control
O=c1c(-c2ccc(O)cc2)coc2cc(O)ccc12 [Daidzein]	105.78 ± 2.90 % of control
COc1cc2cc(Oc3ccc4ccc(=O)oc4c3)c(=O)oc2cc1O [Daphnoretin]	69.60 ± 0.85 % of control
CN(C)[C@@H](CCOc1cccc2ccccc12)c1ccccc1 [Dapoxetine]	19.76 ± 0.64 % of control
COc1ccc([C@@H]2Sc3ccccc3N(CCN(C)C)C(=O)[C@@H]2OC(C)=O)cc1 [Dilthiazem]	26.04 ± 1.00 % of control

Structure (SMILES)	Metabolic rate (Mean ± SD, % of control)
CCCCc1oc2ccc(NS(C)(=O)=O)cc2c1C(=O)c1ccc(OCCCN(CCCC)CCCC)cc1 [Dronedarone]	4.76 ± 0.94 % of control
Oc1cc(O)c2c(c1)O[C@H](c1ccc(O)c(O)c1)[C@H](O)C2 [Epicatechin]	100.31 ± 2.66 % of control
CCc1cccc2c3c([nH]c12)C(CC)(CC(=O)O)OCC3 (centres unmarked) [Etodolac]	98.19 ± 1.07 % of control
COc1ccc2cc1Oc1ccc(cc1)C[C@H]1c3cc(c(OC)cc3CCN1C)Oc1c(O)c(OC)cc3c1[C@H](C2)N(C)CC3 [Fangchinoline]	29.41 ± 4.61 % of control
O=c1c(O)c(-c2ccc(O)c(O)c2)oc2cc(O)ccc12 [Fisetin]	44.37 ± 1.28 % of control
O=C(O)c1cc(O)c(O)c(O)c1 [Gallic acid]	95.98 ± 6.77 % of control
O=c1c(-c2ccc(O)cc2)coc2cc(O)cc(O)c12 [Genistein]	50.39 ± 12.01 % of control
CCC1=C(C)CN(C(=O)NCCc2ccc(S(=O)(=O)NC(=O)N[C@H]3CC[C@H](C)CC3)cc2)C1=O [Glimepiride]	36.97 ± 1.02 % of control
COc1ccc([C@@H]2CC(=O)c3c(O)cc(O)cc3O2)cc1O [Hesperetin]	31.12 ± 2.75 % of control
COc1ccc([C@@H]2CC(=O)c3c(O)cc(O[C@@H]4O[C@H](CO[C@@H]5O[C@@H](C)[C@H](O)[C@@H](O)[C@H]5O)[C@@H](O)[C@H](O)[C@H]4O)cc3O2)cc1O [Hesperiden]	104.17 ± 3.09 % of control
COc1cc(-c2oc3cc(O)cc(O)c3c(=O)c2O)ccc1O [Isorhamnetin]	65.68 ± 3.49 % of control
O=c1c(O)c(-c2ccc(O)cc2)oc2cc(O)cc(O)c12 [Kaempferol]	66.02 ± 4.43 % of control
COC(=O)C1=C(C)NC(C)=C(C(=O)OC(C)(C)CN(C)CCC(c2ccccc2)c2ccccc2)C1c1cccc([N+](=O)[O-])c1 (centres unmarked) [Lercanidipine]	26.70 ± 7.18 % of control
CC1(C)O[C@H]2CC(=O)OC[C@]23[C@H]2CC[C@@]4(C)[C@H](c5ccoc5)OC(=O)[C@H]5O[C@]54[C@]2(C)C(=O)C[C@@H]13 [Limonin]	19.90 ± 0.36 % of control
CN1C(C(=O)Nc2ccccn2)=C(O)c2sc(Cl)cc2S1(=O)=O [Lornoxicam]	79.39 ± 3.06 % of control
CCCCc1nc(Cl)c(CO)n1Cc1ccc(-c2ccccc2-c2nn[nH]n2)cc1 [Losartan]	35.88 ± 1.19 % of control
CC[C@H](C)C(=O)O[C@H]1C[C@@H](C)C=C2C=C[C@H](C)[C@H](CC[C@@H]3C[C@@H](O)CC(=O)O3)[C@H]21 [Lovastatin]	17.75 ± 0.36 % of control
O=c1cc(-c2ccc(O)c(O)c2)oc2cc(O)cc(O)c12 [Luteolin]	95.78 ± 7.92 % of control
CC(C)=CCC/C(C)=C/C=C/C(C)=C/C=C/C(C)=C/C=C/C=C(C)/C=C/C=C(C)/C=C/C=C(\C)CCC=C(C)C [Lycopene]	7.16 ± 0.77 % of control
O=C1CCC[C@@H]2[C@H]3CCCN4CCC[C@@H](CN12)[C@@H]34 [Matrine]	80.23 ± 12.45 % of control
Cc1cccc(C)c1OCC(C)N (centres unmarked) [Mexiletine]	95.32 ± 2.42 % of control
O=c1c(O)c(-c2cc(O)c(O)c(O)c2)oc2cc(O)cc(O)c12 [Myricetin]	2.38 ± 0.15 % of control
O=C1C[C@@H](c2ccc(O)cc2)Oc2cc(O)cc(O)c21 [Naringenin]	42.57 ± 2.14 % of control
